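Method: 48-hour compound exposure of cells in 96-well plates, five concentrations, linear interpolation of endpoints. TGI: concentration producing complete growth inhibition.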 Where a SMILES comes first, the peptide text is derived from it. The star is where a group is joined. CH2Cl = ClC*
What was measured:
Experiment in all cases: DTP human tumour cell line panel, 48 h
[1] = tested on: 786-0 renal
[2] = tested on: A498 renal
[3] = tested on: A549 NSCLC
[4] = tested on: ACHN renal
[5] = tested on: BT-549 breast
[6] = tested on: CAKI-1 renal
[7] = tested on: CCRF-CEM leukemia
[8] = tested on: COLO 205 colon
[9] = tested on: DU-145 prostate
[10] = tested on: EKVX NSCLC
[11] = tested on: HCC-2998 colon
[12] = tested on: HCT-116 colon
[13] = tested on: HCT-15 colon
[14] = tested on: HL-60(TB) leukemia
[15] = tested on: HOP-62 NSCLC
[16] = tested on: HOP-92 NSCLC
[17] = tested on: HS 578T breast
[18] = tested on: HT29 colon
[19] = tested on: IGROV1 ovarian
[20] = tested on: K-562 leukemia
[21] = tested on: KM12 colon
[22] = tested on: LOX IMVI melanoma
[23] = tested on: M14 melanoma
[24] = tested on: MALME-3M melanoma
[25] = tested on: MCF7 breast
[26] = tested on: MDA-MB-231 breast
[27] = tested on: MDA-MB-435
[28] = tested on: MDA-N
[29] = tested on: MOLT-4 leukemia
[30] = tested on: NCI-H226 lung
[31] = tested on: NCI-H23 lung
[32] = tested on: NCI-H460 lung
[33] = tested on: NCI-H522 lung
[34] = tested on: NCI/ADR-RES ovarian
[35] = tested on: OVCAR-3 ovarian
[36] = tested on: OVCAR-4 ovarian
[37] = tested on: OVCAR-5 ovarian
[38] = tested on: OVCAR-8 ovarian
[39] = tested on: PC-3 prostate
[40] = tested on: RPMI-8226 leukemia
[41] = tested on: RXF 393 renal
[42] = tested on: SF-268 CNS
[43] = tested on: SF-295 CNS
[44] = tested on: SF-539 CNS
[45] = tested on: SK-MEL-2 melanoma
[46] = tested on: SK-MEL-28 melanoma
[47] = tested on: SK-MEL-5 melanoma
[48] = tested on: SK-OV-3 ovarian
[49] = tested on: SN12C renal
[50] = tested on: SNB-19 CNS
[51] = tested on: SNB-75 CNS
[52] = tested on: SR leukemia
[53] = tested on: SW-620 colon
[54] = tested on: T-47D breast
[55] = tested on: TK-10 renal
[56] = tested on: U251 CNS
[57] = tested on: UACC-257 melanoma
[58] = tested on: UACC-62 melanoma
[59] = tested on: UO-31 renal
[60] = tested on: DMS 114 small cell lung
[61] = tested on: DMS 273 small cell lung
[62] = tested on: KM20L2 colon
[63] = tested on: M19-MEL melanoma
[64] = tested on: SNB-78 CNS

Q: How did the TGI [1] turn out when CC(=O)NC(CC(C)C)C(=O)NC(Cc1ccccc1)C(=O)CCl (stereo not drawn) (Ac-Leu-Phe-CH2Cl; configuration not given here) was run?
A: 17 µM

Q: What about the TGI [2] of the same compound?
A: 33.8 µM

Q: What about the TGI [3] of the same compound?
A: 41.6 µM

Q: What about the TGI [4] of the same compound?
A: 23.9 µM

Q: What about the TGI [5] of the same compound?
A: 28.4 µM

Q: What about the TGI [6] of the same compound?
A: 32.1 µM

Q: What about the TGI [7] of the same compound?
A: 3.94 µM

Q: And the TGI [8]?
A: > 51.1 µM

Q: And the TGI [9]?
A: 17 µM

Q: And the TGI [10]?
A: 38.4 µM

Q: What about the TGI [11] of the same compound?
A: 30.4 µM

Q: And the TGI [12]?
A: 19.2 µM

Q: And the TGI [13]?
A: 13.2 µM

Q: And the TGI [14]?
A: > 21.3 µM

Q: What about the TGI [15] of the same compound?
A: 33.2 µM

Q: What about the TGI [16] of the same compound?
A: 16.5 µM

Q: What about the TGI [17] of the same compound?
A: 36.4 µM

Q: What about the TGI [18] of the same compound?
A: 34.6 µM

Q: And the TGI [19]?
A: 31.6 µM

Q: What about the TGI [20] of the same compound?
A: 10.7 µM

Q: What about the TGI [21] of the same compound?
A: 36 µM

Q: And the TGI [22]?
A: 10.6 µM

Q: And the TGI [23]?
A: 21.1 µM

Q: What about the TGI [24] of the same compound?
A: 18.4 µM

Q: And the TGI [25]?
A: 22.8 µM

Q: What about the TGI [26] of the same compound?
A: 39.3 µM

Q: What about the TGI [27] of the same compound?
A: 28 µM

Q: And the TGI [28]?
A: 32.9 µM

Q: And the TGI [29]?
A: 4.53 µM

Q: And the TGI [30]?
A: 39.1 µM

Q: And the TGI [31]?
A: 30.3 µM

Q: And the TGI [32]?
A: 43.3 µM

Q: What about the TGI [33] of the same compound?
A: 7.43 µM

Q: And the TGI [34]?
A: 50.1 µM

Q: What about the TGI [35] of the same compound?
A: 28.3 µM

Q: And the TGI [36]?
A: 43.6 µM

Q: And the TGI [37]?
A: 32.4 µM

Q: What about the TGI [38] of the same compound?
A: 19.6 µM

Q: And the TGI [39]?
A: 30.7 µM

Q: What about the TGI [40] of the same compound?
A: > 25 µM

Q: What about the TGI [41] of the same compound?
A: 5.69 µM

Q: What about the TGI [42] of the same compound?
A: 50.4 µM

Q: What about the TGI [43] of the same compound?
A: 33.9 µM

Q: And the TGI [44]?
A: 34.5 µM

Q: And the TGI [45]?
A: 27.4 µM

Q: What about the TGI [46] of the same compound?
A: 23.2 µM

Q: And the TGI [47]?
A: 22.5 µM

Q: What about the TGI [48] of the same compound?
A: 32.3 µM

Q: What about the TGI [49] of the same compound?
A: 27 µM

Q: And the TGI [50]?
A: 37.7 µM

Q: And the TGI [51]?
A: 28.1 µM

Q: And the TGI [52]?
A: > 21.8 µM

Q: What about the TGI [53] of the same compound?
A: 9.17 µM

Q: And the TGI [54]?
A: > 59.7 µM

Q: What about the TGI [55] of the same compound?
A: 24.1 µM

Q: What about the TGI [56] of the same compound?
A: 30.5 µM

Q: And the TGI [57]?
A: 22.4 µM

Q: And the TGI [58]?
A: 19 µM

Q: What about the TGI [59] of the same compound?
A: 28.4 µM

Q: Which results are given for CN(C)c1ccc(C=NC23CC4CC(CC(C4)C2)C3)cc1?
A: TGI [1]: > 100 µM; TGI [2]: > 100 µM; TGI [3]: > 100 µM; TGI [4]: > 100 µM; TGI [6]: > 100 µM; TGI [7]: > 100 µM; TGI [8]: > 100 µM; TGI [60]: > 100 µM; TGI [61]: > 100 µM; TGI [10]: > 100 µM; TGI [11]: > 100 µM; TGI [12]: > 100 µM; TGI [13]: > 100 µM; TGI [14]: > 100 µM; TGI [15]: > 100 µM; TGI [18]: > 100 µM; TGI [19]: > 100 µM; TGI [20]: > 100 µM; TGI [21]: > 100 µM; TGI [62]: > 100 µM; TGI [22]: > 100 µM; TGI [23]: > 100 µM; TGI [63]: > 100 µM; TGI [24]: > 100 µM; TGI [29]: > 100 µM; TGI [30]: > 100 µM; TGI [31]: > 100 µM; TGI [32]: > 100 µM; TGI [33]: > 100 µM; TGI [35]: > 100 µM; TGI [36]: > 100 µM; TGI [37]: > 100 µM; TGI [38]: > 100 µM; TGI [40]: > 100 µM; TGI [41]: > 100 µM; TGI [42]: > 100 µM; TGI [43]: > 100 µM; TGI [44]: > 100 µM; TGI [45]: > 100 µM; TGI [46]: > 100 µM; TGI [48]: > 100 µM; TGI [49]: > 100 µM; TGI [50]: > 100 µM; TGI [64]: > 100 µM; TGI [52]: > 100 µM; TGI [53]: > 100 µM; TGI [55]: > 100 µM; TGI [56]: > 100 µM; TGI [57]: > 100 µM; TGI [58]: > 100 µM; TGI [59]: > 100 µM

Q: What does the source list for CCCCCOC(=O)C(=O)Nc1n[nH]nc1C(N)=O?
A: TGI [1]: > 100 µM; TGI [2]: > 100 µM; TGI [3]: > 100 µM; TGI [4]: > 100 µM; TGI [5]: > 100 µM; TGI [6]: > 100 µM; TGI [7]: > 100 µM; TGI [8]: > 100 µM; TGI [9]: > 100 µM; TGI [10]: > 100 µM; TGI [11]: > 100 µM; TGI [12]: > 100 µM; TGI [13]: > 100 µM; TGI [14]: > 100 µM; TGI [15]: > 100 µM; TGI [16]: > 100 µM; TGI [17]: > 100 µM; TGI [18]: > 100 µM; TGI [19]: > 100 µM; TGI [20]: > 100 µM; TGI [21]: > 100 µM; TGI [22]: > 100 µM; TGI [23]: > 100 µM; TGI [24]: > 100 µM; TGI [25]: > 100 µM; TGI [26]: > 100 µM; TGI [27]: > 100 µM; TGI [28]: > 100 µM; TGI [29]: > 100 µM; TGI [30]: > 100 µM; TGI [31]: > 100 µM; TGI [32]: > 100 µM; TGI [33]: > 100 µM; TGI [34]: > 100 µM; TGI [35]: > 100 µM; TGI [36]: > 100 µM; TGI [37]: > 100 µM; TGI [38]: > 100 µM; TGI [39]: > 100 µM; TGI [40]: > 100 µM; TGI [41]: > 100 µM; TGI [42]: > 100 µM; TGI [43]: > 100 µM; TGI [44]: > 100 µM; TGI [45]: > 100 µM; TGI [46]: > 100 µM; TGI [47]: > 100 µM; TGI [48]: > 100 µM; TGI [49]: > 100 µM; TGI [50]: > 100 µM; TGI [51]: > 100 µM; TGI [52]: > 100 µM; TGI [53]: > 100 µM; TGI [54]: > 100 µM; TGI [55]: > 100 µM; TGI [56]: > 100 µM; TGI [57]: > 100 µM; TGI [58]: > 100 µM; TGI [59]: > 100 µM
